Source: patent US6962920B2, “Pyrimidine derivatives and methods of making and using these derivatives” (Duquesne University of the Holy Ghost, priority 1992, dated 2005)
Read-outs that look alike come from different tables or passages of the source.

Key:
[1] = biological target: T1, Pc DHFR (Pneumocystis carinii, UniProt P16184); experiment: biochemical
T1 sequence (P16184 1-206): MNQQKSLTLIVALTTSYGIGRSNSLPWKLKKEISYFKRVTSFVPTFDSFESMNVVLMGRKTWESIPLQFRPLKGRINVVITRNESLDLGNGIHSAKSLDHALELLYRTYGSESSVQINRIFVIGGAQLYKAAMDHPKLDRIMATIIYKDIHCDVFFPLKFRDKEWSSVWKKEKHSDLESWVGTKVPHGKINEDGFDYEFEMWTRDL

[2] = biological target: T1, Pc DHFR; format: biochemical; conditions: for Selectivity Ratio: RL DHFR/Pc DHFR: Table 7, IC50 RL DHFR divided by IC50 Pc DHFR
Experimental: (§1) The selectivity ratio is a measure of the selectivity of a compound for Pc DHFR or Tg DHFR and is expressed as the IC50 value of the DHFR from rate liver (RL) divided by the IC50 value of either the Pc DHFR or the Tg DHFR, depending on which organism the compounds are being tested against. For example, the selectivity ratio of a compound is calculated by the following formula: [formula]

[3] = biological target: T2, Tg DHFR (Toxoplasma gondii, UniProt Q07422); experiment: biochemical; format: biochemical; conditions: for Selectivity Ratio: RL DHFR/Tg: IC50 RL DHFR divided by IC50 Tg DHFR
T2 sequence (Q07422 1-610): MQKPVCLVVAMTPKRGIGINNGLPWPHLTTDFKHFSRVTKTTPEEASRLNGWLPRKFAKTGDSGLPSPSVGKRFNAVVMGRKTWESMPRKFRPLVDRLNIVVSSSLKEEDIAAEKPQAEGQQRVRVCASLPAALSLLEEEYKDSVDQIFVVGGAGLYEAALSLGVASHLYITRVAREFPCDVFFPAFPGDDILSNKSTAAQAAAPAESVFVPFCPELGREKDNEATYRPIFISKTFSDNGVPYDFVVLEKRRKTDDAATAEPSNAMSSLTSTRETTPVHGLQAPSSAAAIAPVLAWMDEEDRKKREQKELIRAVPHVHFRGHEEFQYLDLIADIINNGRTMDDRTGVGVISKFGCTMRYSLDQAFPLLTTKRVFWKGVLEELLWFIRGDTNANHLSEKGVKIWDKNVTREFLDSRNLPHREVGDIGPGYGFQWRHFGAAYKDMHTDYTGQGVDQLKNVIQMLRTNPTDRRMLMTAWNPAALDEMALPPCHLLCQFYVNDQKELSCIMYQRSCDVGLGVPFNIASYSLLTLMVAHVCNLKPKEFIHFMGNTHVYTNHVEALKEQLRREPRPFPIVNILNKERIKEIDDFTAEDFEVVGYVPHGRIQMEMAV
Experimental: as §1

[4] = biological target: T3, RL DHFR (Rattus norvegicus, UniProt Q920D2); experiment: Inhibition of DHFR from rat liver; format: biochemical
T3 construct: Toxoplasmosis gondii (Tg) and rat liver (RL); from tissue; host or cells: rat liver
T3 sequence (Q920D2 1-187): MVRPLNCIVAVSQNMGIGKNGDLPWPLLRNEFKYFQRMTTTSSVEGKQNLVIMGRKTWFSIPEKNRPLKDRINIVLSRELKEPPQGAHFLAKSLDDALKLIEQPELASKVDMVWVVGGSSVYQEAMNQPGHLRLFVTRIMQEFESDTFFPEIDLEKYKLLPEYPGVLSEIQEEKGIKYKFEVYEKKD
Experimental: as §1

[5] = Table 7, read-out: Pc DHFR IC50
[6] = Table 7, read-out: Tg DHFR IC50
[7] = Table 7, read-out: RL DHFR IC50
[8] = Table 25, read-out: Inhibitor Concentrations (IC50) rlDHFR
[9] = Table 16, read-out: Pc DHFR IC50
[10] = Table 25, read-out: Inhibitor Concentrations (IC50) pcDHFR
[11] = Table 25, read-out: Inhibitor Concentrations (IC50) tgDHFR
[12] = Table 16, read-out: Tg DHFR IC50
[13] = Table 16, read-out: RL DHFR IC50

For COc1cc(NCc2c[nH]c3nc(N)nc(N)c23)cc(OC)c1OC [Compound 1, 2,4-diamino-5-[(3′,4′,5′-trimethoxyanilino)methyl]pyrrolo[2,3-d]pyrimidine], the IC50 [1, 5] was over 23 µM, the “Selectivity Ratio: RL DHFR/Pc DHFR” value [2] was under 2.4 and the “Selectivity Ratio: RL DHFR/Tg” value ([3]; Table 7) was 7.0. It also gave an IC50 [3, 6] of 8.1 µM and an IC50 [4, 7] of 56.3 µM.

With COc1ccc(NCc2c[nH]c3nc(N)nc(N)c23)cc1OC [Compound 2, 2,4-diamino-5-[(3′,4′-dimethoxyanilino)methyl]pyrrolo[2,3-d]pyrimidine] the IC50 [1, 5] was 119 µM, the IC50 [3, 6] was 4.3 µM and the IC50 [4, 7] was 116 µM.

In the case of COc1ccc(NCc2c[nH]c3nc(N)nc(N)c23)cc1 [Compound 3, 2,4-diamino-5-[(4′-methoxyanilino)methyl]pyrrolo[2,3-d]pyrimidine], the IC50 [1, 5] is reported as 279 µM, the “Selectivity Ratio: RL DHFR/Pc DHFR” value [2] is reported as 0.23 and the “Selectivity Ratio: RL DHFR/Tg” value ([3]; Table 7) is reported as 10.5. The IC50 [3, 6] was 6 µM and the IC50 [4, 7] was 63 µM.

Compound COc1ccc(OC)c(NCc2cnc3[nH]c(N)nc(N)c2-3)c1 [Compound 4, 2,4-diamino-5-[(2′,5′-dimethoxyanilino)methyl]pyrrolo[2,3-d]pyrimidine] has an IC50 [3, 6] of 1.7 µM and an IC50 [4, 7] of 156 µM.

CCOc1ccc(OCC)c(NCc2c[nH]c3nc(N)nc(N)c23)c1 [Compound 5, 2,4-diamino-5-[(2′,5′-diethoxyanilino)methyl]pyrrolo[2,3-d]pyrimidine] gave an IC50 [1, 5] of over 21 µM, an IC50 [3, 6] of 5.3 µM and an IC50 [4, 7] of 70 µM.

Nc1nc(N)c2c(CNc3ccc(Cl)c(Cl)c3)c[nH]c2n1 [Compound 6, 2,4-diamino-5-[(3′,4′dichloroanilino)methyl]pyrrolo[2,3-d]pyrimidine] gave an IC50 [1, 5] of 35.3 µM, an IC50 [3, 6] of 1.4 µM and an IC50 [4, 7] of 14.4 µM.

With Nc1nc(N)c2c(CNc3ccccc3)cnc-2[nH]1 [Compound 8, 2,4-diamino-5-(anilinomethyl)pyrrolo[2,3-d]pyrimidine] the “Selectivity Ratio: RL DHFR/Pc DHFR” value ([1]; Table 7, IC50 RL DHFR divided by IC50 Pc DHFR) was over 1, the IC50 [1, 5] was 252 µM and the “Selectivity Ratio: RL DHFR/Tg” value ([3]; Table 7) was over 65. The IC50 [3, 6] was 3.9 µM and the IC50 [4, 7] was over 252 µM.

With Nc1nc(N)c2c(CSc3ccccc3)coc2n1 [Compound 159, 2-4-Diamino-5-[(phenylthio)methyl]furo[2,3-d]pyrimidine] the IC50 [4, 8] was 252 µM.

Nc1nc(N)c2c(CSc3cccc4ccccc34)coc2n1 [Compound 160, 2,4-Diamino-5-[(1-naphthylthio)methyl]furo[2,3-d]pyrimidine] gave an IC50 [4, 8] of 23 µM.

For Nc1nc(N)c2c(CSc3ccc4ccccc4c3)coc2n1 [Compound 161, 2,4-Diamino-5-[(2-naphthylthio)methyl]furo[2,3-d]pyrimidine], the IC50 [1] was 0.66 µM, the IC50 [1, 9] was 0.65 µM and the IC50 [1, 10] was 0.65 µM. For the same compound, the IC50 [4, 8] was 12.3 µM.

Nc1nc(N)c2c(CNc3cccc4ccccc34)coc2n1 [Compound 162, 2,4-Diamino-5-[(1-naphthylamino)methyl]furo[2,3-d]pyrimidine] showed an IC50 [1, 9] of 13.5 µM, an IC50 [1, 10] of 13.5 µM and an IC50 [3, 11] of 37 µM.

Compound Nc1nc(N)c2c(CNc3ccc4ccccc4c3)coc2n1 [Compound 163, 2-4-Diamino-5-[(2-naphthylamino)methyl]furo[2,3-d]pyrimidine] has an IC50 [1, 9] of 41 µM, an IC50 [1, 10] of 41 µM and a Selectivity ratio rl/pc ([2]; IC50 rlDHFR/IC50 pcDHFR) of 0.89. The “Selectivity Ratio RL/Pc” value ([2]; Table 16) was 0.89, the Selectivity ratio rl/tg ([3]; IC50 rlDHFR/IC50 tgDHFR) was 0.96 and the “Selectivity Ratio RL/Tg” value ([3]; Table 16) was 0.96. It also gave an IC50 [3, 12] of 38 µM, an IC50 [3, 11] of 38 µM and an IC50 [4, 13] of 36.5 µM. It also gave an IC50 [4, 8] of 36.5 µM.

Work on Nc1nc(N)c2c(CNc3ccccc3Oc3ccccc3)coc2n1 [Compound 165, 2,4-Diamino-5-[(2′-phenoxyanilino)methyl]furo[2,3-d]pyrimidine] yielded an IC50 [1, 9] of over 12 µM, an IC50 [1, 10] of over 12 µM and an IC50 [3, 12] of over 12 µM. It also gave an IC50 [3, 11] of over 12 µM, an IC50 [4, 13] of over 12 µM and an IC50 [4, 8] of over 12 µM.

Nc1nc(N)c2c(CNc3ccc(Oc4ccccc4)cc3)coc2n1 [Compound 166, 2,4-Diamino-5-[(4′-phenoxyanilino)methyl]furo[2,3-d]pyrimidine] showed an IC50 [3, 12] of 32.4 µM and an IC50 [3, 11] of 32.4 µM.
